Assay results published in patent US20250092395A1, “A GLUN2D INHIBITOR FOR USE IN THE TREATMENT OR RELAPSE PREVENTION OF A DEPRESSIVE EPISODE” (priority 2022, published 2025).
Entries after “also recorded” stand apart in the source; their conditions may differ.

Assays:
CDM mice = assay: Nose-poke sucrose preference test in CDM mice; assay type: in vivo; conditions: CIQ or lorazepam applied prior to NAB-14
Source text: (§1) Behavioral Readout: After the treatment intervention, animals were either tested in an additional swim session (test day) to measure immobility time or tested in the InteliCage using the Nose-pokes sucrose preference test. For the assessment of the immobility time, mice were videotaped and two independent raters who were blinded to the experimental group analyzed the videos. Immobility time was defined as the cumulative time that the animals spend stationary with only enough movements of the tails or the forepaws to keep the head above the water surface. No distance is actively travelled except for passive floating, no directed movement of the front paws observed and the body of the animal mostly oriented parallel to the walls of the cylinder.
The IntelliCage system (TSE Systems) allows simultaneous analysis of spontaneous and exploratory behavior, activity pattern, and drinking preference of up to 16 group-housed mice implanted with radio-frequency identification (RFID) transponders. The unit consists of an open common space with 4 red shelters in the center and 4 recording corners. Mice have free access to food in the middle of the IntelliCage, water is available in the corners behind remote-controlled guillotine doors. Each corner is equipped with 2 drinking bottles and permits the visit of only one mouse at the same time. The scored parameters—the nosepokes toward the doors and the licks on the bottles—were monitored by a PC-based tracking software (IntelliCage Plus, TSE Systems). Initially, the mice were allowed to adapt to the IntelliCage for at least 7 days with water available ad libitum in all corners. Then for 3 days the animals were habituated to the sucrose taste: in each corner one of the bottles was filled with 1% sucrose solution and the other one with water. Both doors in the corner were open allowing free choice between the bottles. Next, a nosepoke adaptation period was carried out, where all doors were closed and the mice had to perform a nosepoke to open them. The opened door closes automatically after 5 s of drinking. In all tasks involving sucrose-filled bottles, the positions of the bottles were exchanged every 24 h. The Nosepoke SPT protocol was used (see Alboni et al.) for measurement of sucrose preference with gradually increasing effort (number of nosepokes) to reach the sucrose bottles for a short period of time (12 h). In this paradigm each door opens in response to a nosepoke and closes after 5 s licking. The number of nosepokes needed to open a door to a side with a sucrose containing bottle gradually increases (1, 2, 3, 4, 5, 6, 8, 10, 12, 16, 20, 24) after every 8 sucrose licking sessions. For each bottle the number of licks was recorded and the averaged sucrose preference was calculated as percentage of the total number of licks.

[1] = system: CA3-CA1 synapse in hippocampal brain slices of CDM mice; assay: aLTP/aLTD inducibility in hippocampal brain slices of CDM mice after in vivo treatment; conditions: for LTP reestablishment by NAB-14, comedication / CDM-induced blockade of LTP inducibility (aLTP) / LTD inducibility (EPSP amplitude after aLTD protocol): CDM mice; for LTP reestablishment by NAB-14, comedication: CIQ or lorazepam injected 20 min prior to NAB-14; for CDM-induced blockade of LTP inducibility (aLTP): pretreatment; for LTD inducibility (EPSP amplitude after aLTD protocol): treatment after CDM
Procedure: Animals were preoxygenated in a 100% oxygen atmosphere for 5 min before cervical dislocation and decapitated according to national and institutional guidelines. Transverse 300 […] were cut from hippocampus with a Vibratome (VT1200, Leica, Japan). Slices were prepared in artificial cerebrospinal fluid (ACSF) containing (in mmol/I): 125 NaCl, 25 NaHCO3, 1.25 NaH2PO4, 2.5 KCL, 1 MgCl2, 27 Glucose, 2 CaCl2) bubbled with carbogen (95% O2, 5% CO2).
After 20 min resting time at 35° C., slices were kept at room temperature in aCSF and transferred into the recording chamber (volume approx. 2-3 ml) and continuously superfused with aCSF (rate approx. 5-10 ml/min-). Differential interference contrast video microscopy was used to identify location of CA1 pyramidal neurons (Zeiss Axioskop 2 FS plus, Zeiss Microscopy, Germany). Beside optical identification neurons were classified according to their characteristic firing frequency adaptation to long depolarising current pulses. Borosilicate glass tubes (2.0 mm outer diameter, 0.5 mm wall thickness; Hilgenberg, Germany) were used to pull patch pipettes. Pipettes with a resistance of 5-10 MΩ were used and series resistance of 10-50 MΩ was compensated by bridge balance. Patch pipettes were filled with an internal solution containing (in mM) for EPSP-measurements: 132K-gluconate, 20KCL, 2MgCl2, 10Hepes, 0.1EGTA, 4 Na2ATP, 0.3NaGTP. PH was adjusted to 7.2 with KOH. For current measurements: 135Csgluconate, 2CsCl, 5 QX314, 10 Hepes, 10EGTA, 2MgCl2, 2Na2ATP, 2TEACI, pH was adjusted to 7.2 with HCl. Osmolarity (280-300 mosmol/1) was controlled at the beginning of each experimental day with Osmomat (Gonotec GmbH, Germany).
A stimulation pipette (patch pipette with 1-3 MΩ resistance when filled with internal solution) was placed superficially in the stratum radiatum of the CA1 region in approximately […] distance to the pyramidal cell layer. Subthreshold excitatory postsynaptic potentials (EPSPs, 2 7 mV) were evoked by Schaffer collateral stimulation with voltage pulses of 10-80 V (frequency of 0.1 Hz, duration of 200 μs) using a stimulus isolator (Model 2100 Isolated pulse stimulator, Carlsborg, U.S.A.). Resting membrane potentials were between −75 and −65 mV and holding potential was −70 mV. 50 ms current test pulses (leading to 5-10 mV hyperpolarization) were applied to control input and series resistances after every 10th EPSP. EPSPs were combined with APs triggered by short (3 ms) current application of 900 pA via the patch-clamp electrode. EPC-10 amplifiers (HEKA, Germany) were used and signals were filtered at 5 kHz. Patchmaster NEXT software (Version 1.2, HEKA, Germany) was used for data acquisition and experiments were performed at room temperature.
aLTP: Five EPSPs and five postsynaptic APs were paired at 100 Hz with a 5 ms delay (AP after EPSP). Five of these bursts of synchronized EPSP→AP pairs were applied at theta frequency (5 Hz), followed by an interval of 10 sec and 4 more theta blocks, resulting in 125 EPSP/AP pairings.
aLTD: 360 postsynaptic APs were pared with 360 EPSPs with a delay of 20-30 ms between each AP/EPSP pairing at a frequency of 1 Hz. 1 Hz LTD: 600 EPSPs were elicited at a frequency of 1 Hz whilst CA1 pyramidal cell membrane potential was hold at −60 mV.
Long-term plasticity or molecular analyses were assessed as described above after the induction phase of the CDM and the specific treatment.
EPSP measurement: For baseline measurement, the mean amplitudes of 30 consecutive EPSPs before the induction protocol were calculated. 25 min after LTP induction the mean amplitude of 30 consecutive EPSPs was calculated and compared to the baseline of the same measurement. Changes of EPSP amplitudes were expressed as percentages of the baseline measurement and analysed for each experimental group applying a two-tailed Wilcoxon test. The differences between separate experimental groups were assessed using the Mann-Whitney test, not assuming normal distribution. […]

[2] = system: mice subjected to the chronic despair model (CDM); assay: Chronic despair model (CDM) swim test, immobility time; assay type: in vivo; conditions: for immobility time of CDM mice treated with NAB-14, comedication: CIQ (10 mg/kg) or lorazepam (0,125 mg/kg) applied prior to NAB-14
Procedure: Induction phase: Mice were forced to swim in a glass cylinder (0 26 cm, 60 cm high) filled to 25 cm with 25° C. warm water for 10 min on 5 consecutive days. After the swimming, the animals were kept in their cages for two days before treatment and experiment readout was performed. The immobility time was measured in each session.
as §1

AMPAR and NMDAR currents = assay: Control experiments: currents recorded at −80 mV and +40 mV; assay type: cell-based, mice; conditions: CNQX 10 μM; for currents recorded at −80 mV: then addition of DAPV 100 μM; for currents recorded at +40 mV: DAPV 100 μM
[3] = system: SOM-dependent feedback loop, CA1 PCs; assay: Feedback loop-activating protocol (FLAP) in CA1 PCs; assay type: cell-based, mice
Procedure: A 300 ms depolarizing current between +100 and +[…] was injected via the patch pipette into a PC to elicit a train of 5-10 APs. After an interval of 600 ms, one EPSP (5-10 mV amplitude) was elicited by Schaffer collateral stimulation. This pattern was continuously repeated at a frequency of 0.2 Hz. Substances were added by bath application after a stable 10 min baseline recording for an additional 20 min. For data analysis the maximum EPSP amplitudes from minutes 0-10 were averaged and compared to averaged maximum EPSP amplitudes from minutes 20-30.
The slope of the EPSP rise at 20% to 40% of its maximal amplitude, at which point an approximately linear increase in its voltage could be assumed, was fitted with Fitmaster software (HEKA, Germany). We analyzed 20 EPSPs before and 20 EPSPs 25-30 minutes after NAB-14 wash-in in the FLAP protocol for each experiment. The coefficient of variation (CV) is the standard deviation of the EPSP slopes divided by the mean. The inverse square of the CV of the postwash-in slopes was divided by the inverse square of the prewash-in slopes and plotted against the corresponding normalized slopes. Pre- and postwash-in measurements from a single experiment are connected by a line. In a standard quantal model for synaptic transmission, synaptic responses are affected either by presynaptic changes in the number of release sites and/or the probability of release or by modifications of the postsynaptic response to a single […]. A change in the ratio of CV-2 reflects a presynaptic action, whereas horizontal lines in the CV-2 plot indicate a change in postsynaptic responsiveness.

[4] = system: SOM-dependent feedback loop, CA1 PCs; assay: as above; assay type: cell-based, mice; remark: listed apart in the source
[5] = system: CA3-CA1 synapse, CA1 pyramidal neurons in hippocampal brain slices; assay: LTP/LTD protocols and wash-in in brain slices of unstressed mice, substance in bathing solution; assay type: cell-based; conditions: hydrochloride; for LTP inducibility, associative LTP protocol (aLTP): unstressed mice, bath with picrotoxin, R,S-ketamine 10 μM, S-ketamine 5 μM

In the case of `O=C1Nc2ccc(Cl)cc2C(c2ccccc2Cl)=NC1O` (stereo not drawn) [lorazepam], the “sucrose preference of CDM mice treated with NAB-14, comedication” value (CDM mice) is reported as “did not improve”, the “LTP reestablishment by NAB-14, comedication” value (shortened to “LTP reestablishment”) [1] is reported as “abolishing LTP reestablishment” and the “LTP reestablishment” value ([1]; listed as Lorazepam) is reported as “blocked NAB-14 effects completely”. The “LTP inducibility, lorazepam alone” value ([1]; control and CDM condition) was “did block LTP inducibility”, the “immobility time of CDM mice treated with NAB-14, comedication” value (“immobility time of CDM mice treated” for short) [2] was “did not improve” and the “immobility time of CDM mice treated” value ([2]; listed as Lorazepam) was “blocked NAB-14 effects”.

With `N[C@H](CCCP(=O)(O)O)C(=O)O` [DAPV, D-(−)-2-Amino-5-phosphonopentanoic acid] the “currents recorded at −80 mV” value (AMPAR and NMDAR currents) was “did not significantly change; also recorded: did not have further effects” and the “currents recorded at +40 mV” value (AMPAR and NMDAR currents) was “full blockade; also recorded: fully blocked”.

`N[C@@]1(c2ccccc2Cl)CCC[C@@H](O)C1=O` [HNK, 2R,6R Hydroxynorketamine] was tested, and the “CDM-induced blockade of LTP inducibility (aLTP)” value [1] was “neither HNK nor mGluR2 antagonist 1 treatment did change this blockade”, the “LTD inducibility (EPSP amplitude after aLTD protocol)” value [1] was “abolishes this reduction of amplitude; also recorded: completely blocked the LTD inducibility” and the “EPSP amplitude after aLTD” value ([1]; treatment prior to swim sessions (before CDM), male and female mice) was “complete revers of EPSP amplitudes”.

In the case of `CN1C(=O)CN=C(c2ccccc2)c2cc(Cl)ccc21` [diazepam], the “NAB-14-induced increase in EPSP amplitude in FLAP, in presence of diazepam” value [3] is reported as “abolished; also recorded: prevented” and the “EPSP amplitude in the absence of AP bursts” value [4] is reported as “neither NAB14 nor diazepam wash-in significantly altered the EPSP amplitude; also recorded: no significant pre/post changes”.

In the case of `COc1ccc2nc(/C=C/c3cccc([N+](=O)[O-])c3)n(-c3ccc(C(=O)O)cc3)c(=O)c2c1` [QNZ46, 4-[6-Methoxy-2-[(1E)-2-(3-nitrophenyl)ethenyl]-4-oxo-3(4H)-quinazolinyl]-Benzoic acid], the immobility time ([2]; CDM mice, 7 mg/kg i.p. two hours before behavioral readout, n=10) is reported as “significantly reduced”.

With `COc1ccc(OCC2c3cc(OC)c(OC)cc3CCN2C(=O)c2cccc(Cl)c2)cc1` (stereo not drawn) [CIQ] the “sucrose preference of CDM mice treated with NAB-14, comedication” value (CDM mice) was “did not improve”, the “LTP reestablishment” value [1] was “abolishing LTP reestablishment; also recorded: blocked NAB-14 effects completely” and the “immobility time of CDM mice treated” value [2] was “did not improve; also recorded: blocked NAB-14 effects”.

With `N#Cc1cc2c(cc1[N+](=O)[O-])=NC(=O)C(=O)N=2` [CNQX, 6-Cyano-7-nitroquinoxaline-2,3-dione] the “currents recorded at −80 mV” value (AMPAR and NMDAR currents) was “fully blocked” and the “currents recorded at +40 mV” value (AMPAR and NMDAR currents) was “only partially be reduced; also recorded: only partially influenced”.

In the case of `NC(=O)c1cc(-c2ccc(F)cc2)c2ccc(CN3C(=O)CCC3=O)cc2n1` [mGluR2 antagonist 1, 7-[(2,5-dioxopyrrolidin-1-yl)methyl]-4-(4-fluorophenyl)quinoline-2-carboxamide], the “CDM-induced blockade of LTP inducibility (aLTP)” value [1] is reported as “neither HNK nor mGluR2 antagonist 1 treatment did change this blockade” and the “LTD inducibility (EPSP amplitude after aLTD protocol)” value [1] is reported as “abolishes this reduction of amplitude; also recorded: completely blocked the LTD inducibility”.

For `CN[C@]1(c2ccccc2Cl)CCCCC1=O.Cl` [S-ketamine, S-Ketamine hydrochloride], the “EPSP amplitude after associative LTD protocol (aLTD, NMDAR-independent)” value [5] was “unaffected; also recorded: neither R,S-ketamine (10 μM) nor S-ketamine (5 μM) had an effect”, the “LTD inducibility, non-associative 1 Hz LTD protocol (NMDAR-dependent)” value [5] was “fully blocked; also recorded: abolished” and the “LTP inducibility, non-associative 100 Hz LTP protocol” value [5] was “significant blockade of inducibility of LTP”. For the same compound, the aLTP induction [5] was “neither K nor SK blocked aLTP induction; also recorded: not affected”, the “LTP inducibility, associative LTP protocol (aLTP)” value [5] was “significant blockade of inducibility of LTP” and the “LTP inducibility, associative LTP protocol (aLTP)” value ([5]; listed as SK) was “complete inhibition of LTP”.
